Reference: patent US12023319B2, “Carboxylic acid aromatic amides” (priority 2016, dated 2024)
Values belong to the compound of their own block, whether it stands above or below them.

Tests used:
[1] = cited from earlier work
[2] = cited from earlier work; remark: listed apart in the source
[3] = cited from earlier work; remark: listed apart in the source
human B1R = biological target: T1, human B1R (Homo sapiens, UniProt P46663); conditions: human B1R-expressing CHO cells; cited from earlier work
T1 construct: host or cells: CHO cells
T1 sequence (P46663 1-353): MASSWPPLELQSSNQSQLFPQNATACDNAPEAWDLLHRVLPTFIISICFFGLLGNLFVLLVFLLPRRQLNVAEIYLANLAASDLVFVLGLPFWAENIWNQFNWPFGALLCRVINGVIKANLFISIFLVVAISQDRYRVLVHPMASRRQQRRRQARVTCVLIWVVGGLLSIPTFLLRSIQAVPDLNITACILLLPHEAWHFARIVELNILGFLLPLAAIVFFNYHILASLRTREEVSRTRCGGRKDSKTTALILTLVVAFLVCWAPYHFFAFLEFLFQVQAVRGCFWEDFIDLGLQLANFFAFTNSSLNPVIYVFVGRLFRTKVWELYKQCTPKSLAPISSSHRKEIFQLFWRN

Male Sprague Dawley rats = experiment: Rat CFA in vivo model (mechanical hyperalgesia, paw withdrawal threshold); conditions: for Paw withdrawal threshold 2 hours post-compound: 2 hours post-compound (Table 5)
Description: Male Sprague Dawley rats were used. Mechanical hyperalgesia was induced by injecting 25 μL of Complete Freund's Adjuvant (CFA) into the plantar surface of one hind paw. Mechanical hyperalgesia was measured using the Pressure Application Measurement apparatus (Ugo Basile, Gemonio, Italy). Briefly, a linearly increasing pressure was applied to an area of ˜50 mm^2 of the plantar side of the hind paw until a behavioural response (paw withdrawal) was observed or until the pressure reached 1000 gf. The pressure at which the behavioural response occurred was recorded as the “Paw Withdrawal Threshold” (PWT). Both CFA-injected and contralateral PWTs were determined for each rat, in each treatment group and at each time point of the studies. The Compound Examples were administered orally in a vehicle of dimethylsulfoxide (DMSO), Polyethylenglycol (PEG) and 2-hydroxypropyl-beta-cyclodextrin (HPCD) (v/v/v=3:20:77). Rats received a first dose of […] of Compound Example per kg body weight 1 hour before CFA injection and a second dose 24 hours after the CFA injection. Mechanical hyperalgesia testing was performed approximately 2 hours before CFA injection, then 2 and 4 hours after the second dose of Compound Example (i.e. 26 and 28 hours after CFA treatment). Data were expressed as the mean±S.D. Area Under the Curve (AUC) of PWTs (defined in table 3 as “AUC of Paw withdrawal threshold (AUC 0-4 hours) post-vehicle” with respect to vehicle group or “AUC of Paw withdrawal threshold (AUC 0-4 hours) post-drug” with respect to Compound Example). Data were analysed by performing a one-way ANOVA followed by a Dunnett's post hoc test. For p values less than 0.05 the results were deemed to be statistically significant.

[4] = biological target: T2, native human Bradykinin B1 receptor (Homo sapiens, UniProt P46663); experiment: Calcium flux assay (FLIPR) with IMR-90 human fibroblasts expressing Bradykinin B1 receptor after IL-1beta induction (hB1 IMR-90); format: cell-based; conditions: IMR-90 human fibroblasts after IL-1beta induction, read-out: hB1 IMR90 IC50
T2 construct: which express native human Bradykinin B1 receptor after induction with human IL-1beta; Coriell Institute; host or cells: IMR-90 human foetal lung fibroblasts, induced with human IL-1beta
T2 sequence (P46663 1-353): T1 sequence (P46663 1-353)
Description: Calcium Flux Assay (FLIPR) with Human Fibroblasts Expressing Bradykinin B1 Receptor (hB1 IMR-90)
The Calcium flux Assay was carried out utilising IMR-90 human foetal lung fibroblasts (American Type Culture Collection, Rockville, MD; and Coriell Institute, Camden, New Jersey), which express native human Bradykinin B1 receptor after induction with human IL-1beta.
The fibroblasts were cultured in complete growth media comprised of Dulbecco's modified Eagle's medium (DMEM; Sigma) containing 10% foetal bovine serum, 4 mM L-glutamine, and 1% nonessential amino acids. The cells were maintained in a humidified atmosphere with 5% CO2 at 37° C. and were sub-cultured at a ratio of 1:3, every other day.
For the assay, IMR-90 fibroblasts were harvested using TrypLE Express (GIBCO/Invitrogen) and seeded into 384-well plates (Corning Cellbinding Surface, Cat. 3683) at a density of 15000 cells/well. The following day, cells were treated with 0.35 ng/mL human IL-1beta in 10% FBS/MEM for 3 h to up-regulate Bradykinin B1 receptor. Induced cells were loaded with fluorescent calcium indicator by incubation with 2.5 μM Fluo-4/AM (Invitrogen) at 37° C., 5% CO2 for 2 h in the presence of 2.5 mM probenecid in 1% FBS/MEM. […] Compound examples were assayed at 8 concentrations in triplicate. […] A peptide antagonist Lys-(Des-Arg-Leu)-Bradykinin (Bachem, Brackley) at 20 µM was used to determine the full inhibition as control. IC50 values were determined by the same way described for the FLI PR assay with recombinant cells.

[5] = biological target: T3, human Bradykinin B1 receptor (Homo sapiens, UniProt P46663); experiment: Calcium flux assay (FLIPR), CHO-K1 cells expressing human Bradykinin B1 receptor, absence of 0.1% BSA (hB1 free IC50); format: cell-based; conditions: absence of 0.1% BSA in assay buffer
T3 construct: host or cells: CHO-K1
T3 sequence (P46663 1-353): T1 sequence (P46663 1-353)
Summary of the method: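 Peak FLIPR fluorescence (538 nm) after B1 agonist peptide addition gave IC50s, scaled between DMSO and full block by 20 µM Lys-(Des-Arg-Leu)-Bradykinin. Compounds were preincubated 30 min at 28° C with calcium-dye-loaded CHO-K1 cells expressing human B1, at 8 concentrations in triplicate, 1% DMSO final.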

[6] = due to metabolic lability; cited from earlier work

Structure (SMILES): C[C@@H]1CC[C@H](C)N1C(=O)c1ccc([C@@H](C)NC(=O)C2(NC(=O)c3cc(F)cc(C(F)(F)F)c3)CC2)c(F)c1
- aqueous solubility [1]: reasonable
- human metabolic stability [2]: poor
- pharmacokinetic profile in rat [3]: reasonable

Structure (SMILES): COC(=O)c1c(Cl)cccc1N1CCC(CNC(=O)C2(NC(=O)C(F)(F)F)CC2)CC1
- binding affinity (human B1R): highest

- IC50 [4]: 2.8 nM
- IC50 [5]: 7 nM
Structure (SMILES): O=C(O)c1cc(NC(=O)C2(c3ccc(OC(F)(F)F)cc3F)CC2)cc(F)c1-c1cnn(C2CCC2)c1 [Example 43, 2-(1-Cyclobutyl-1H-pyrazol-4-yl)-3-fluoro-5-[({1-[2-fluoro-4-(trifluoromethoxy)phenyl]cyclopropyl}carbonyl)amino]benzoic acid]
- Paw withdrawal threshold 4 hours post-compound (Male Sprague Dawley rats; 0.75 mg/kg p.o.): 599 ± 28 gf (ns)
- Paw withdrawal threshold 4 hours post-compound (Male Sprague Dawley rats; 3 mg/kg p.o.): 610 ± 21 gf (ns)
- Paw withdrawal threshold 4 hours post-compound (Male Sprague Dawley rats; 15 mg/kg p.o.): 709 ± 18 gf (****)

- IC50 [4]: 28 nM
- IC50 [5]: 47 nM
Structure (SMILES): CC(C)n1cc(-c2ccc(NC(=O)C3(c4ccc(OC(F)(F)F)cc4F)CC3)cc2C(=O)O)cn1 [Example 71, 5-[({1-[2-Fluoro-4-(trifluoromethoxy)phenyl]cyclopropyl}carbonyl)amino]-2-[1-(propan-2-yl)-1H-pyrazol-4-yl]benzoic acid]
- Paw withdrawal threshold 2 hours post-compound (Male Sprague Dawley rats; 0.75 mg/kg p.o.): 591 ± 20 gf (ns)
- Paw withdrawal threshold 2 hours post-compound (Male Sprague Dawley rats; 3 mg/kg p.o.): 628 ± 17 gf (ns)
- Paw withdrawal threshold 2 hours post-compound (Male Sprague Dawley rats; 10 mg/kg p.o.): 742 ± 49 gf (****)

Structure (SMILES): C[C@@H](NC(=O)C1(NC(=O)C(F)(F)F)CC1)c1ccc(-c2cccc(Cl)c2C(=O)O)cc1F [MK-0686]
- pharmacokinetic profile [6]: suboptimal
